The assay addresses T1, human recombinant full-length fatty acid synthase (FASN) (Homo sapiens, UniProt P49327).
T1 construct: 40 nM human recombinant full-length fatty acid synthase (produced in-house in SF9 cells); made in house; host or cells: SF9 cells
Kind of assay: Biochemical activity testing of human fatty acid synthase FASN (NADPH fluorescence intensity enzyme assay). The following applies: inhibition of NADPH conversion. From the text: Biochemical Activity Testing of Human Fatty Acid Synthase FASN
Fatty acid synthase FASN is a multifunctional enzyme with seven catalytic activities thereby synthesising long chain fatty acids especially palmitoyl-CoA in the presence of co-factor NADPH starting from the substrates acetyl-CoA and malonyl-CoA. The reductive synthesis is realized by the oxidation of NADPH to NADP. Since NADPH has a high fluorescence intensity quantum yield compared to NADP with excitation at 340 nm and emission at 460 nm, the reaction can be monitored via the decrease in fluorescence intensity. The biochemical FASN activity testing was performed as 384 well two-time-point kinetic fluorescence intensity assay format in Greiner low volume medium binding 384-well black microtiter plates in a total assay volume of 8 μl and was used for high throughput screen. In each well 3 μl 40 nM human recombinant full-length fatty acid synthase (produced in-house in SF9 cells) were dispensed in the following assay buffer: 50 mM potassium phosphate buffer pH 7.0, 0.005% (w/v) BSA, 2 mM Glutathione, 0.02% Tween-20. Then 2 μl of 200 μM NADPH in assay buffer were added, followed by the addition of the test compounds in 10 dilution concentrations starting with 30 μM (final concentration) to get a final DMSO content of 1% (v/v). The mixture was incubated for at least 15 min at room temperature. After the pre-incubation the enzymatic reaction was started by the addition of 2 μl substrate solution (80 μM acetyl-CoA, 240 μM malonyl-CoA). A first fluorescence intensity measurement (time point one) was performed with an Envision multimode reader (Perkin Elmer LAS Germany GmbH) at excitation wavelength 340 nm (lamp mode) and emission wavelength 460 nm. The reaction was incubated for 30 minutes at room temperature. After this the fluorescence intensity was measured again in the Envision using the same parameters as described above (second time point measurement). The data were analysed by subtracting the first time point measurement value from the second time point measurement value (after the enzymatic reaction). The differences of the emission signals were determined. These reflect directly the conversion rate of NADPH. The full value used was the inhibitor-free reaction. A pharmacological zero value was used like GSK837149A (Sigma-Aldrich) in a final concentration of 5-10 μM. The inhibitory values (IC50) were determined using either the program Symyx Assay Explorer® or Condosseo® from GeneData.

T1 sequence (P49327 whole entry): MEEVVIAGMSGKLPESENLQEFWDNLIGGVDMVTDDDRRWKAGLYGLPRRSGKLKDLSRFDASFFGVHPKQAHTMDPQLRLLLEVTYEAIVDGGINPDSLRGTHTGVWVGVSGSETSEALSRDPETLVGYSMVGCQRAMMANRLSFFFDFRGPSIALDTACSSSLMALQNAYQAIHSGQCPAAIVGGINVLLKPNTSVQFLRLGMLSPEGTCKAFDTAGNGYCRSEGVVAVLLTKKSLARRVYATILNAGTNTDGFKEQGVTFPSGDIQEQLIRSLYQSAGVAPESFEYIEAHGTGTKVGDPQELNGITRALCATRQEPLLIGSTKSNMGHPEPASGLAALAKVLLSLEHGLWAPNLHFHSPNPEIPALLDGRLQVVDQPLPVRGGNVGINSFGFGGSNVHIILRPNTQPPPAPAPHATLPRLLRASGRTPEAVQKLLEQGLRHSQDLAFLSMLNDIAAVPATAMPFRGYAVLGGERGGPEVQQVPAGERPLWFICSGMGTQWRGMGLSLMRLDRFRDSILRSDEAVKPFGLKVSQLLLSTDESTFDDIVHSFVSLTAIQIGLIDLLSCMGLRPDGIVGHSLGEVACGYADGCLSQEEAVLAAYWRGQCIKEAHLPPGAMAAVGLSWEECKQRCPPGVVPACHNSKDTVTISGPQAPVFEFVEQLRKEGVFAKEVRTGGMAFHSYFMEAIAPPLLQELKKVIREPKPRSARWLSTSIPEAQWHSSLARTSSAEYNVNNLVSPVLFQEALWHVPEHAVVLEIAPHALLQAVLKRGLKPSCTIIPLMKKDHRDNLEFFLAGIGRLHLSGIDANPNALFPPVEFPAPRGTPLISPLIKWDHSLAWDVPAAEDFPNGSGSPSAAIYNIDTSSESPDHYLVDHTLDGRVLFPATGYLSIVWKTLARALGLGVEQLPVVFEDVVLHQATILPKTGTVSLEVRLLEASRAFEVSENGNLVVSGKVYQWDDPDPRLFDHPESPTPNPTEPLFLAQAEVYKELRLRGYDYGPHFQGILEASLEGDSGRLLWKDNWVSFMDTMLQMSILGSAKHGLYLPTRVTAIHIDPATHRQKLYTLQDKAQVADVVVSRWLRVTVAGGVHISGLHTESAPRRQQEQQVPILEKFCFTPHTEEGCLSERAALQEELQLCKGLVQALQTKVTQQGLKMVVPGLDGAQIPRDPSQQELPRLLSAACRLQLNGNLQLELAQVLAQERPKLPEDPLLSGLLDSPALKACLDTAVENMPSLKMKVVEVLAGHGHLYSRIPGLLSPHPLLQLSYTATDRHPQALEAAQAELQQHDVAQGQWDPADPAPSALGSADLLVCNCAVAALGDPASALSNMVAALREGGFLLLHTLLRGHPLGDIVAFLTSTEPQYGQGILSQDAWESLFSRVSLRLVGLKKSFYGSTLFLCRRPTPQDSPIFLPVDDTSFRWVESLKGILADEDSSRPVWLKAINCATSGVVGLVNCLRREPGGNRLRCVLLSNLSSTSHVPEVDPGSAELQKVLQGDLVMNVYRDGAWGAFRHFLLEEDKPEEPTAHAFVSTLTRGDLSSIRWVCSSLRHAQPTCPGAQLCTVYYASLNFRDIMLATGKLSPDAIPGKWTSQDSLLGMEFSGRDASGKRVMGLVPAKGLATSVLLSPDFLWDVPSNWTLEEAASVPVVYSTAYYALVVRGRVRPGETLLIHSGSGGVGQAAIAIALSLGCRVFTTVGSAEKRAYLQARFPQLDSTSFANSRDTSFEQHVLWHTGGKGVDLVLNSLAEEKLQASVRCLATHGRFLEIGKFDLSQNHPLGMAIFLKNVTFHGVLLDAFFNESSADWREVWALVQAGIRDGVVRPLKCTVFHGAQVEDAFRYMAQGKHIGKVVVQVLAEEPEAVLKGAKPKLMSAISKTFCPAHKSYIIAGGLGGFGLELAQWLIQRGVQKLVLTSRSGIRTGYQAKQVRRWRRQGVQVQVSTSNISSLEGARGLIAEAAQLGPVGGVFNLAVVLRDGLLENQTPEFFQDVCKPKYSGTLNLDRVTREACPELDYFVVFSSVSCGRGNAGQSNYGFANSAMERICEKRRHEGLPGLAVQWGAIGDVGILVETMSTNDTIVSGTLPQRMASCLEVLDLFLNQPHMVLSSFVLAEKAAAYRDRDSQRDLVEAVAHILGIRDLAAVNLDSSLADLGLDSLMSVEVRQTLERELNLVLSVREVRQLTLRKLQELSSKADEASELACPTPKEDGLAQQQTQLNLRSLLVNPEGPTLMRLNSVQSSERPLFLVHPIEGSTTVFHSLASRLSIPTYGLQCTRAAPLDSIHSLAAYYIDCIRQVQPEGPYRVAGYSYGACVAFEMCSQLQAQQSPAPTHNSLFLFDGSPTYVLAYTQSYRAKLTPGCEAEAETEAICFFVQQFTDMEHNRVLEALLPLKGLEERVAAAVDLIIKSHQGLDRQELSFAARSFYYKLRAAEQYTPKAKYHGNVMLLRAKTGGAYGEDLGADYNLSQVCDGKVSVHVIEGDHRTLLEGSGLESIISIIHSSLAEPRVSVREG

`CCC(=O)N1CC2CN(C(=O)c3ccc(-c4ccc5cnccc5c4)cc3)CC2C1` (centres unmarked) [Compound A1, 1-[5-(4-isoquinolin-6-yl-benzoyl)-hexahydro-pyrrolo[3,4-c]pyrrol-2-yl]-propan-1-one]: the IC50 is below 0.3 µM.

As for `CCC(=O)N1CC2CN(C(=O)c3ccc(-c4ccc5ccoc5c4)cc3)CC2C1` (centres unmarked) [Compound A2, 1-[5-(4-benzofuran-6-yl-benzoyl)-hexahydro-pyrrolo[3,4-c]pyrrol-2-yl]-propan-1-one], the IC50 is 0.3 to 3 µM.

Take `CC(=O)N1CC2CN(C(=O)c3ccc(-c4ccc5cnccc5c4)cc3)CC2C1` (centres unmarked) [Compound A3, 1-[5-(4-isoquinolin-6-yl-benzoyl)-hexahydro-pyrrolo[3,4-c]pyrrol-2-yl]-ethanone]: the IC50 fell in the range of 0.3 to 3 µM.

As to `CCC(=O)N1CC2CN(C(=O)c3ccc(-c4ccc5cc[nH]c5c4)cc3)CC2C1` (centres unmarked) [Compound A4, 1-{5-[4-(1H-indol-6-yl)-benzoyl]-hexahydro-pyrrolo[3,4-c]pyrrol-2-yl}-propan-1-one], the IC50 lay within 0.3 to 3 µM.

Turning to `O=C(c1ccc(-c2ccc3cc[nH]c3c2)cc1)N1CC2CN(C(=O)C3CC3)CC2C1` (centres unmarked) [Compound A5, (5-cyclopropanecarbonyl-hexahydro-pyrrolo[3,4-c]pyrrol-2-yl)-[4-(1H-indol-6-yl)-phenyl]-methanone], the IC50 is 0.3 to 3 µM.

With `CC(=O)N1CC2CN(C(=O)c3ccc(-c4ccc5ccoc5c4)cc3)CC2C1` (centres unmarked) [Compound A6, 1-[5-(4-benzofuran-6-yl-benzoyl)-hexahydro-pyrrolo[3,4-c]pyrrol-2-yl]-ethanone], the IC50 was 3 to 50 µM.

On to `CC(=O)N1CC2CN(C(=O)c3ccc(-c4ccc5cc[nH]c5c4)cc3)CC2C1` (centres unmarked) [Compound A7, 1-{5-[4-(1H-indol-6-yl)-benzoyl]-hexahydro-pyrrolo[3,4-c]pyrrol-2-yl}-ethanone], for which the IC50 was in the range of 0.3 to 3 µM.

On to `O=C(c1ccc(-c2ccc3cnccc3c2)cc1)N1CC2CN(C(=O)C3CC3)CC2C1` (centres unmarked) [Compound A8, (5-cyclopropanecarbonyl-hexahydro-pyrrolo[3,4-c]pyrrol-2-yl)-(4-isoquinolin-6-yl-phenyl)-methanone], for which the IC50 is 0.3 to 3 µM.

A word on the IC50: it is the midpoint of a concentration-inhibition curve.

The record behind these values is patent US9416133B2, “Hydropyrrolopyrrole derivatives for use as fatty acid synthase inhibitors” (MERCK PATENT GMBH, priority 2012, dated 2016).
